Structures can show the parent of a compound that is named as a salt.
biological target: T1, hCaV2.2 (Homo sapiens, UniProt Q00975); test: hCaV2.2 assay, IonWorks planar array electrophysiology in stably transfected HEK293 cells; format: cell-based; settings: current elicited by the 1st depolarising pulse inhibited by 50%; HEK293 cells expressing human CaV2.2 alpha/beta3/alpha2delta1; read-out: mean pIC50 (tonic pIC50) (converted)
T1 construct: expressed in transfected cells; plasmids pCIN5-hCaV2.2, pCIH-hCaV β3, pCIP-α2δ1
T1 sequence (Q00975 whole entry): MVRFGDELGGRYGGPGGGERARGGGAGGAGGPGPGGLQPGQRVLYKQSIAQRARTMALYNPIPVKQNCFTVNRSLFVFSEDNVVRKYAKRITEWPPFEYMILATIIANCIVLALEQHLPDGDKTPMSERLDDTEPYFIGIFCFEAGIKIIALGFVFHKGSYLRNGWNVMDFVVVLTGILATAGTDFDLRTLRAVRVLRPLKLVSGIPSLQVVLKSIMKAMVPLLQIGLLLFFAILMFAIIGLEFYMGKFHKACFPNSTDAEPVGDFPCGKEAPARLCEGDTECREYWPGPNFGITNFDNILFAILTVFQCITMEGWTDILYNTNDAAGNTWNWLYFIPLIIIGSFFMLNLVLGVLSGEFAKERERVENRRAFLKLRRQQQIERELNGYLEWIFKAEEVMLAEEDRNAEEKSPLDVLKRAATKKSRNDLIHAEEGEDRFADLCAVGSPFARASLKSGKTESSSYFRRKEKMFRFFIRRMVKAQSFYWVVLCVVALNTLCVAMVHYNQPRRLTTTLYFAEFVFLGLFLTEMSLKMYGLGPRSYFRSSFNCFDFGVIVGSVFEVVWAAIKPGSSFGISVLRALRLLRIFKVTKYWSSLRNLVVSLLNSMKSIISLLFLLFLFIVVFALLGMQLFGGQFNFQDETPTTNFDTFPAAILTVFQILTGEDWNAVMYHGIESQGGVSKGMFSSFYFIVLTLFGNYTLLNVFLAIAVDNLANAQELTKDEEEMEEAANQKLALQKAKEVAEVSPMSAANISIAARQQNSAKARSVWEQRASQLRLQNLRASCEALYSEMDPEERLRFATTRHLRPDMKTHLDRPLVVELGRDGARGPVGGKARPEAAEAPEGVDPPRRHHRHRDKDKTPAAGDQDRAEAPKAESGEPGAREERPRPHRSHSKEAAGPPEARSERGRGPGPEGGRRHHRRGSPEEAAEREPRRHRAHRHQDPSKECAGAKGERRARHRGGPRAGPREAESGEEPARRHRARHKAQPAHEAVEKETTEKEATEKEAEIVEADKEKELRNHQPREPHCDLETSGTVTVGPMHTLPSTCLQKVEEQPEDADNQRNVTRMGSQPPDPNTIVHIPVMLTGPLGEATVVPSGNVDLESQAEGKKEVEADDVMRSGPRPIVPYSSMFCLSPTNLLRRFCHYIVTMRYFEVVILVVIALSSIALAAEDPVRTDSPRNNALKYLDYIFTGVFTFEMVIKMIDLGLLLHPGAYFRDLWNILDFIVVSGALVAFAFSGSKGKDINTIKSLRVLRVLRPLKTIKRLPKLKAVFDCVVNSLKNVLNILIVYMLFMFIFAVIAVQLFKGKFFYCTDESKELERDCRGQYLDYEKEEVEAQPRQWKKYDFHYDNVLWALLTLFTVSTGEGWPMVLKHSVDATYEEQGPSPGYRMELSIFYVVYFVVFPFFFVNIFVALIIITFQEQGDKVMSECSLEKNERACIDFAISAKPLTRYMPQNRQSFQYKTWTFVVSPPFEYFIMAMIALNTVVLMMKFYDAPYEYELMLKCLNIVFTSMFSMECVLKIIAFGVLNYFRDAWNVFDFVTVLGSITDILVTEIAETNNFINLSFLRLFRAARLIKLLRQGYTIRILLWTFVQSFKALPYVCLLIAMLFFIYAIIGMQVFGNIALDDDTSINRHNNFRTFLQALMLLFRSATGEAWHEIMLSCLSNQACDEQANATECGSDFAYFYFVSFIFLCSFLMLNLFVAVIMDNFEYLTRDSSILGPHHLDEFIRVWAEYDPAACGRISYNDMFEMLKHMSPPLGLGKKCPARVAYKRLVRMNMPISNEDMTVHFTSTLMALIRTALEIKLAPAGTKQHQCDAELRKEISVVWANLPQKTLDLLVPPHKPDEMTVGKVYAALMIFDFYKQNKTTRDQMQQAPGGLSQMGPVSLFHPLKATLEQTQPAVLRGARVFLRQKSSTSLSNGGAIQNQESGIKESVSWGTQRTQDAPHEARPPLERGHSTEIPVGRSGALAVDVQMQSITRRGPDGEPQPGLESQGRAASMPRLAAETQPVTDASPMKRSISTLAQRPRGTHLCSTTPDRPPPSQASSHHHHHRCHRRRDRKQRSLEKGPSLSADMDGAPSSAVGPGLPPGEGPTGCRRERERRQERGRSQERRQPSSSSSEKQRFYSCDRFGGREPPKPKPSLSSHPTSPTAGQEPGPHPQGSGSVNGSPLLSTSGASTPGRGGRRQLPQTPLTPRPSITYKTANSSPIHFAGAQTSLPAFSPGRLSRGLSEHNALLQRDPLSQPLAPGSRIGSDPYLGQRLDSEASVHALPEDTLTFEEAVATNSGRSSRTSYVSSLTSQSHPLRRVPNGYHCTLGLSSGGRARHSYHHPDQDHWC
Experimental: Compounds of the invention may be tested for in vitro biological activity in the hCaV2.2 assay in accordance with the following studies:
Stable cell lines expressing the human CaV2.2 α (als) subunit, along with the human […] and α2δ1 auxiliary subunits were created following sequential transfection and selection of human embryonic kidney (HEK293) cells. HEK293 cells were cultured in Dulbecco's modified Eagles media/F12 media (Invitrogen, Cat #041-95750V) containing 10% foetal bovine serum, with added L-glutamine (2 mM; Invitrogen, Cat #25030-024) and non-essential amino acids (5%; Invitrogen, Cat #11140-035). Initially HEK293 cells were transfected with two plasmid vectors for expression of the hCaV2.2 α subunit (pCIN5-hCaV2.2 which carries a neomycin resistance marker) and the hCaV β3 subunit (pCIH-hCaV β3 which carries a hygromycin resistance marker). Clonal cell lines were isolated following selection in media supplemented with 0.4 mg ml^−1 Geneticin G418 (Invitrogen, Cat #10131-027) and 0.1 mg ml^1 hygromycin (Invitrogen, Cat #10687-010). These clonal cell lines were assessed for Cav2.2α/β3-mediated current expression using the IonWorks planar array electrophysiology technology (described below). A clonal line was identified that gave a reasonable level of functional Cav2.2α/β3 current expression. This cell line was transfected with a plasmid vector for expression of the human […] subunit (pCIP-α2δ1 which carries a puromycin resistance marker) and clonal cell lines isolated following selection in media containing 0.62 μg ml^−1 puromycin (Sigma, Cat #P-7255), in addition to 0.4 mg ml^−1 Geneticin G418 and 0.1 mg ml^−1 hygromycin. Several cell lines were identified that gave robust levels of Cav2.2α/β3/α2δ1-mediated current expression and one of these was selected for compound profiling. Expression of all three subunits within this cell line was continuously maintained by the inclusion of G418 (0.4 mg ml^−1), hygromycin (0.1 mg ml^−1) and puromycin (0.62 μg ml^−1). Cells were maintained at 37° C. in a humidified environment containing 5% CO2 in air. Cells were liberated from the T175 culture flasks for passage and harvesting using TrpLE (Invitrogen, Cat #12604-013).
Cells were grown to 30-60% confluence in T175 flasks and maintained at 30° C. for 24 hrs prior to recording. Cells were lifted by removing the growth media, washing with Ca^2+ free PBS (Invitrogen, Cat #14190-094) and incubating with 3 ml of warmed (37° C.) TrpLE (Invitrogen, Cat #12604-013) for 6 minutes. Lifted cells were suspended in 10 ml of extracellular buffer. Cell suspension was then placed into a 15 ml tube and centrifuged for 2 minutes at 700 rpm. After centrifugation, the supernatant was removed and the cell pellet was resuspended in 4.5 ml of extracellular solution.
Currents were recorded at room temperature (21-23° C.) using the IonWorks planar array electrophysiology technology (Molecular Devices Corp.). Stimulation protocols and data acquisition were carried out using a microcomputer (Dell Pentium 4). In order to determine planar electrode hole resistances (Rp), a 10 mV, 160 ms potential difference was applied across each hole. These measurements were performed before cell addition. After cell addition a seal test was performed prior to antibiotic (amphotericin) circulation to achieve intracellular access. Leak subtraction was conducted in all experiments by applying a 160 ms hyperpolarizing (10 mV) prepulse 200 ms before the test pulses to measure leak conductance. Test pulses stepping from the holding potential (VH) of −90 mV to +10 mV were applied for 20 ms and repeated 10 times at a frequency of 10 Hz. In all experiments, the test pulse protocol was performed in the absence (pre-read) and presence (post-read) of a compound. Pre- and post-reads were separated by a compound addition followed by a 3-3.5 min incubation.
The intracellular solution contained the following (in mM): K-gluconate 120, KCl 20 mM, MgCl2 5, EGTA 5, HEPES 10, adjusted to pH 7.3. […]

IC50, ≥ 31.6 µM:
Cc1ccc(C(=O)N2CCN(S(=O)(=O)c3ccc(C#N)cc3C)C[C@@H]2C)cn1 [Example 17, 3-Methyl-4-({(3S)-3-methyl-4-[(6-methyl-3-pyridinyl)carbonyl]-1-piperazinyl}sulfonyl)benzonitrile]
Cc1ncccc1C(=O)N1CCN(S(=O)(=O)c2ccc(C(F)(F)F)cc2)C[C@@H]1C [Example 2, (2S)-2-Methyl-1-[(2-methyl-3-pyridinyl)carbonyl]-4-{[4-(trifluoromethyl)phenyl]sulfonyl}piperazine hydrochloride]
Cc1ccc(C(=O)N2CCN(S(=O)(=O)c3cc(C(F)(F)F)ccc3C)CC2)cn1 [Example 61, 1-[(6-methyl-3-pyridinyl)carbonyl]-4-{[2-methyl-5-(trifluoromethyl)phenyl]sulfon-yl}piperazine]
Cc1ncccc1C(=O)N1CCN(S(=O)(=O)c2ccc(OC(F)(F)F)cc2)C[C@H]1C [Example 65, (2R)-2-methyl-1-[(2-methyl-3-pyridinyl)carbonyl]-4-({4-[(trifluoromethyl)oxy]phenyl}sulfonyl)piperazine]
Cc1ccc(C(=O)N2CCN(S(=O)(=O)c3ccc(C(F)(F)F)cc3)[C@H](C)C2)cn1 [Example 9, (2R)-2-Methyl-4-[(6-methyl-3-pyridinyl)carbonyl]-1-{[4-(trifluoromethyl)phenyl]sulfonyl}piperazine formic acid salt]
COc1ccc(C(=O)N2CCN(S(=O)(=O)c3ccc(C(F)(F)F)cc3)C[C@@H]2C)cn1 [Example 14, (2S)-2-Methyl-1-{[6-(methyloxy)-3-pyridinyl]carbonyl}-4-{[4-(trifluoromethyl)phenyl]sulfonyl}piperazine]
Cc1ccc(C(=O)N2CCN(S(=O)(=O)c3ccc(OC(F)F)cc3)CC2)cn1 [Example 73, 1-({4-[(difluoromethyl)oxy]phenyl}sulfonyl)-4-[(6-methyl-3-pyridinyl)carbonyl]piperazine]
O=C(c1ccc(N2CCCC2)nc1)N1CCN(S(=O)(=O)c2ccc(C(F)(F)F)cc2)CC1 [Example 69, 1-{[6-(1-pyrrolidinyl)-3-pyridinyl]carbonyl}-4-{[4-(trifluoromethyl)phenyl]sulfon-yl}piperazine]
Cc1ncccc1C(=O)N1CCN(S(=O)(=O)c2ccc(OC(F)(F)F)cc2)C[C@@H]1C [Example 64, (2S)-2-methyl-1-[(2-methyl-3-pyridinyl)carbonyl]-4-({4-[(trifluoromethyl)oxy]phenyl}sulfonyl)piperazine]
Nc1ccc(C(=O)N2CCN(S(=O)(=O)c3ccc(C(F)(F)F)cc3)CC2)cn1 [Example 66, 5-[(4-{[4-(trifluoromethyl)phenyl]sulfon-yl}-1-piperazinyl)carbonyl]-2-pyridinamine]
C[C@H]1CN(C(=O)c2ccc(N3CCOCC3)nc2)CCN1S(=O)(=O)c1ccc(Cl)cc1 [Example 7, 4-[5-({(3S)-4-[(4-Chlorophenyl)sulfonyl]-3-methyl-1-piperazinyl}carbonyl)-2-pyridinyl]morpholine]
CCc1ccc(C(=O)N2CCN(S(=O)(=O)c3ccc(C#N)cc3C)C[C@@H]2C)cn1 [Example 53, 4-({(3S)-4-[(6-ethyl-3-pyridinyl)carbonyl]-3-methyl-1-piperazinyl}sulfonyl)-3-methylbenzonitrile hydrochloride]
Cc1ccc(C(=O)N2CCN(S(=O)(=O)c3ccc(C(F)(F)F)cc3)[C@@H](C)C2)cn1 [Example 11, (2S)-2-Methyl-4-[(6-methyl-3-pyridinyl)carbonyl]-1-{[4-(trifluoromethyl)phenyl]sulfonyl}piperazine formic acid salt]
Cc1ccncc1C(=O)N1CCN(S(=O)(=O)c2ccc(C(F)(F)F)cc2)C[C@@H]1C [Example 18, (2S)-2-Methyl-1-[(4-methyl-3-pyridinyl)carbonyl]-4-{[4-(trifluoromethyl)phenyl]sulfonyl}piperazine]
Cc1ccc(C(=O)N2CCN(S(=O)(=O)c3cc(C(F)(F)F)ccc3C)C[C@@H]2C)cn1 [Example 59, (2S)-2-methyl-1-[(6-methyl-3-pyridinyl)carbonyl]-4-{[2-methyl-5-(trifluoromethyl)phenyl]sulfon-yl}piperazine]
Cc1ccc(C(=O)N2CCN(S(=O)(=O)c3ccc(Cl)cc3)[C@@H](C)C2)cn1 [Example 8, (2S)-1-[(4-Chlorophenyl)sulfonyl]-2-methyl-4-[(6-methyl-3-pyridinyl)carbonyl]piperazine]
Cc1ncccc1C(=O)N1CCN(S(=O)(=O)c2ccc(C(F)(F)F)cc2)CC1 [Example 5, 1-[(2-Methyl-3-pyridinyl)carbonyl]-4-{[4-(trifluoromethyl)phenyl]sulfonyl}piperazine]
Cc1ccc(C(=O)N2CCN(S(=O)(=O)c3ccc(OC(F)F)cc3)C[C@@H]2C)cn1 [Example 22, (2S)-4-({4-[(Difluoromethyl)oxy]phenyl}sulfonyl)-2-methyl-1-[(6-methyl-3-pyridinyl)carbonyl]piperazine]
Cc1ccc(C(=O)N2CCN(S(=O)(=O)c3ccc(C(F)(F)F)cc3)CC2)cn1 [Example 4, 1-[(6-Methyl-3-pyridinyl)carbonyl]-4-{[4-(trifluoromethyl)phenyl]sulfonyl}piperazine]
C[C@H]1CN(S(=O)(=O)c2ccc(C(F)(F)F)cc2)CCN1C(=O)c1ccc(C#N)nc1 [Example 13, 5-[((2S)-2-Methyl-4-{[4-(trifluoromethyl)phenyl]sulfonyl}-1-piperazinyl)carbonyl]-2-pyridinecarbonitrile]

IC50, ≥ 10 µM:
CCN(CC)c1ccc(C(=O)N2CCN(S(=O)(=O)c3ccc(C(F)(F)F)cc3)CC2)cn1 [Example 56, N,N-diethyl-5-[(4-{[4-(trifluoromethyl)phenyl]sulfonyl}-1-piperazinyl)carbonyl]-2-pyridinamine]
Cc1cc(N2CCOCC2)ncc1C(=O)N1CCN(S(=O)(=O)c2ccc(C(F)(F)F)cc2)C[C@@H]1C [Example 47, 4-{4-Methyl-5-[((2S)-2-methyl-4-{[4-(trifluoromethyl)phenyl]sulfonyl}-1-piperazinyl)carbonyl]-2-pyridinyl}morpholine hydrochloride]
Cc1nc(Cl)ccc1C(=O)N1CCN(S(=O)(=O)c2ccc(C(F)(F)F)cc2)C[C@@H]1C [Example 24, (2S)-1-[(6-Chloro-2-methyl-3-pyridinyl)carbonyl]-2-methyl-4-{[4-(trifluoromethyl)phenyl]sulfonyl}piperazine]
Cc1ccc(C(=O)N2CCN(S(=O)(=O)c3ccc(C(F)(F)F)cc3)C[C@@H]2C)c(C)n1 [Example 29, (2S)-1-[(2,6-Dimethyl-3-pyridinyl)carbonyl]-2-methyl-4-{[4-(trifluoromethyl)phenyl]sulfonyl}piperazine]
Cc1cc(C#N)ccc1S(=O)(=O)N1CCN(C(=O)c2ccc(Cl)nc2C)[C@@H](C)C1 [Example 25, 4-({(3S)-4-[(6-Chloro-2-methyl-3-pyridinyl)carbonyl]-3-methyl-1-piperazinyl}sulfonyl)-3-methylbenzonitrile]
C[C@H]1CN(S(=O)(=O)c2ccc(C(F)(F)F)cc2)CCN1C(=O)c1ccc(N2CCC2)nc1 [Example 45, (2S)-1-{[6-(1-Azetidinyl)-3-pyridinyl]carbonyl}-2-methyl-4-{[4-(trifluoromethyl)phenyl]sulfonyl}piperazine hydrochloride]

From US8536183B2, “3-pyridylcarbonyl-piperazinylsulfonyl derivatives” (Convergence Pharmaceuticals Limited, priority 2008, dated 2013)
